Results from patent US20230390315A1, “COMPOSITIONS AND METHODS FOR TREATING ISCHEMIC CONDITIONS” (The Regents of the University of California, priority 2020, published 2023).

Columns and labels:
bFGFR1 or β1 integrin = experiment: Western blot of protein molecular mass in non-ECs; type: cell-based; conditions: 400 μM and 2 mM
Experimental: Cells were allowed to reach 80% confluency in 12-well plates. […] At various time points, plates were taken out of the incubator and kept on ice. Cell monolayers were first washed once with ice-cold PBS before lysis with 250 μl of Pierce RIPA buffer (ThermoFisher Scientific, Rockford, IL) or use 50 mM Tris-HCl (pH 7.6), 150 mM NaCl, 10% Glycerol, 1% NP-40 containing protease/Phosphatase inhibitor cocktail (100×) (Cell signaling, #5872). Lysates were collected and mixed with 4×Bolt LDS Sample Buffer (Novex, Carlsbad, CA) in the presence of Halt protease inhibitors and phosphatase inhibitor cocktail (ThermoFisher scientific, #NP0007). The samples were subjected to SDS-PAGE (Bolt 4-12% Bis-Tris Plus, Invitrogen) using Bolt MES SDS running buffer or NuPAGE 3-8% Tris-Acetate gel using Tris-Acetate SDS running buffer (Novex). HUVECs (passage 6-8) were plated in EBM-2 basal medium (Lonza) with 0.2% FBS. […] Equal amounts of protein lysates were analyzed by SDS-PAGE and blotted with the indicated antibodies. Proteins were transferred using Tris-Glycine buffer with 20% Methanol (Proteonomics grade) (Apex BioResearch Products). Membranes were first incubated with 5% milk in TBST, pH 7.6 (TEKnova, Hollister, CA), followed by blotting with primary and secondary antibodies. […]

[1] = in vivo
human dermal fibroblasts = experiment: Human dermal fibroblast proliferation assay; type: cell-based; conditions: alone or in combination with growth factors
Experimental: (§1) Proliferation assays with fibroblasts were done in low-glucose DMEM containing 1% FBS, with or without 10 ng/ml bFGF, or 100 ng/ml human EGF and the assay was ended at day 3. ARPE-19 cells were gently lifted with 0.025% trypsin and plated in RtEGM media (Clonetics) containing 2% FBS, L-glutamine, human bFGF and GA-1000. Once cells were attached to plates, serum-free RtEGM media was used to maintain the cultures. For proliferation assays, 1500 human RPE cells were plated into 96-well plates in low-glucose DMEM containing 1% FBS. A673, U87MG, Calu6 and AML12 cells were grown until confluent and were then harvested and re-suspended in appropriate assay media. For proliferation assays, cells were plated at the density of 1000-2000 cells/well in low-glucose DMEM containing 5% FBS or otherwise stated. Bovine pituitary cells (pituitary folliculostellate cells) were isolated as previously described. For proliferation assays with human epidermal keratinocytes, human DMVECs and human dermal fibroblast cells, 1000 cells/well were plated in low-glucose DMEM containing 1% FBS with or without various growth factors. The assay was ended at day 3 for bovine pituitary cells and at day 4 for all the other cell types. […] Four days later, tumor cell growth was measured by the MTS assay (Promega, Madison, WI), a colorimetric assay that measures metabolic activity of viable cells. […]

[2] = tested on: bovine retinal microvascular endothelial cells (BREC); experiment: BREC proliferation assay; type: cell-based
Experimental: Proliferation assays with BCECs and BRECs were performed. Log-phase growing BCECs or BRECs (passage <10) were trypsinized, re-suspended and seeded in 96-well plates (no coating) in low-glucose DMEM supplemented with 10% bovine calf serum, 2 mM glutamine, and antibiotics (growth medium), at a density of 1200-1500 cells per well in 200 μl volume. All reagents were added at the indicated final concentrations. After 3-6 days, cells were incubated with AlamarBlue for 4 hrs. Fluorescence was measured at 530 nm excitation wavelength and 590 nm emission wavelength. The experiments were repeated at least three times. To create a hypoxic condition, cells were placed in a hypoxia incubator with a mixture of gas consisting of 1% 02, 5% CO2 and 94% Nz. On each 96-well plate, untreated and VEGF-treated (10/ng/ml) wells were included to monitor plate-to-plate variations. 20% methanol or 0.05% DMSO served as negative controls. 0.05% DMSO served as negative controls when Cas was tested in these cells. Human RMVECs and human adult DMVECs were split into Gelatin-coated 96 wells (2000 cells per well) in low glucose DMEM containing 10% FBS. 1200 cells/well was set up for proliferation assay in low glucose media containing FBS. Data was collected at day 4 or 5. HUVEC (p7-10) were grown on gelatin-coated plate until it reached 70-80% confluency.

human keratinocytes = experiment: Human keratinocyte proliferation assay; type: cell-based
Experimental: as §1

Calu6 = Calu6 proliferation assay; type: cell-based, human
Experimental: as §1

A673 = A673 proliferation assay; type: cell-based, human
Experimental: as §1

HUVEC = HUVEC migration assay; type: cell-based, human; conditions: 40 uM ManN alone
Experimental: HUVECs (passage 6-8) were cultured and serum-starved as described in “Western Blots”. Ten thousand cells in 150 μl of EBM-2 medium were then added to the upper chamber of 8 μm pore size cell culture inserts (Falcon) coated with 0.1% gelatin. The lower compartment was filled with 600 μl EBM-2 medium containing various agents. The plates were incubated at 37° C. to allow migration. After 4 hrs, cells were fixed with 4% PFA for 20 min and then stained with crystal violet (Sigma-Aldrich) for 20 min at RT. Migrated cells on the bottom side of the insert membrane were quantified by counting whole area of the insert at 40× magnification. The experiments were carried out in triplicate and repeated three times. BCEC migration was set up similarly, except that wells were coated with FN, cells were suspended in 1% serum media and migration time was 18-24 hrs.

NIH3T3 fibroblasts = experiment: NIH3T3 proliferation assay; type: cell-based, mouse; conditions: alone or in combination with growth factors
Experimental: as §1

N[C@H](C=O)[C@@H](O)[C@H](O)[C@H](O)CO [ManN, 2-Amino-2-deoxy-D-mannose]
molecular mass change of bFGFR1 or β1 integrin in non-ECs (bFGFR1 or β1 integrin): induce molecular mass change
plasma free ManN peak level ([1]; male, C57BL/6, mouse, po): ~100 nmol/ml plasma
time of plasma peak level ([1]; male, C57BL/6, mouse, po): 1 h
free ManN in ischemic leg muscle ([1]; male, C57BL/6, mouse, po, 2 h): 0.17+/−0.18 nmol/mg protein
plasma free ManN detectable relative to peak ([1]; mouse): about half of that amount
proliferation of human dermal fibroblasts (human dermal fibroblasts): no increases in proliferation
additive effects in promoting BREC proliferation [2]: Additive effects
cellular toxicity, sensitivity among cell types (human keratinocytes; 5 mM level of ManN): least sensitive
proliferation of human keratinocytes (human keratinocytes; alone or in combination with growth factors): no increases in proliferation
growth of Calu6 (Calu6): did not promote growth
growth of A673 (A673): did not promote growth
HUVEC migration (HUVEC): stimulation of migration
proliferation of NIH3T3 cells (NIH3T3 fibroblasts): no increases in proliferation
